Earlier results, collected in patent US5972966A, “Inhibitors of farnesyl-protein transferase” (Merck & Co., Inc., priority 1997, dated 1999).

Experiments:
[1] = test system: farnesyl-protein transferase; conditions: by inhibiting HMG-CoA reductase
Ras processing in cells = conditions: by inhibiting the rate-limiting step in the isoprenoid biosynthetic pathway

## CC[C@H](C)C(=O)O[C@H]1CCC=C2C=C[C@H](C)[C@H](CC[C@@H]3C[C@@H](O)CC(=O)O3)[C@H]21 [compactin]
[1]
  Indirect inhibition of farnesyl-protein transferase in vivo: Indirect inhibition

## CC[C@H](C)C(=O)O[C@H]1C[C@@H](C)C=C2C=C[C@H](C)[C@H](CC[C@@H]3C[C@@H](O)CC(=O)O3)[C@H]21 [lovastatin]
[1]
  Indirect inhibition of farnesyl-protein transferase in vivo: Indirect inhibition
Ras processing in cells
  blocking of Ras processing in cells: blocks Ras processing in cells
